Data taken from ChEMBL document CHEMBL1255359, “Mechanisms of macrolide resistance among Streptococcus pneumoniae isolates from Russia” (2008).
Values after ≈ are worked out from the molar mass of the structure shown.

Legend:
Type in all cases: functional
[1] = tested on: Streptococcus pneumoniae; test: Antibacterial activity against constitutive macrolide-lincosamide-streptogramin B resistant erm(B) and mef(E)-positive Streptococcus pneumoniae by broth dilution method
[2] = tested on: Streptococcus pneumoniae; test: Antibacterial activity against inducible macrolide-lincosamide-streptogramin B resistant erm(B) and mef(E)-positive Streptococcus pneumoniae by broth dilution method
[3] = tested on: Streptococcus pneumoniae; test: Antibacterial activity against inducible macrolide-lincosamide-streptogramin B resistant and erm(B)-positive Streptococcus pneumoniae by broth dilution method
[4] = tested on: Streptococcus pneumoniae; test: Antibacterial activity against macrolide resistant and mef(E)-positive Streptococcus pneumoniae by broth dilution method
[5] = tested on: Streptococcus pneumoniae; test: Antibacterial activity against macrolide resistant and mef(I)-positive Streptococcus pneumoniae by broth dilution method
[6] = tested on: Streptococcus pneumoniae; test: Antibacterial activity against macrolide resistant and mef-positive Streptococcus pneumoniae by broth dilution method
[7] = tested on: Streptococcus pneumoniae; test: Antibacterial activity against constitutive macrolide-lincosamide-streptogramin B resistant and erm(B)-positive Streptococcus pneumoniae by broth dilution method

SMILES | MIC [1] [µg/mL] | MIC [2] [µg/mL] | MIC [3] [µg/mL] | MIC [4] [µg/mL] | MIC [5] [µg/mL] | MIC [6] [µg/mL] | MIC [7] [µg/mL]
CCC[C@@H]1C[C@@H](C(=O)N[C@@H]([C@H]2O[C@H](SC)[C@H](O)[C@@H](O)[C@H]2O)[C@H](C)Cl)N(C)C1 [CLINDAMYCIN] | ≥ 8 | ≥ 32 | ≥ 2 | 0.015 (≈ 0.0353 µM) | 0.015 (≈ 0.0353 µM) | 0.03 (≈ 0.0706 µM) | ≥ 32
CC[C@H]1OC(=O)[C@H](C)[C@@H](O[C@H]2C[C@@](C)(OC)[C@@H](O)[C@H](C)O2)[C@H](C)[C@@H](O[C@@H]2O[C@H](C)C[C@H](N(C)C)[C@H]2O)[C@](C)(O)C[C@@H](C)C(=O)[C@H](C)[C@@H](O)[C@]1(C)O [ERYTHROMYCIN] | ≥ 32 | ≥ 32 | ≥ 2 | 1 (≈ 1.36 µM) | 2 (≈ 2.73 µM) | 8 (≈ 10.9 µM) | ≥ 32
